In US7288653B2, “Inhibitors of proton-gated cation channels and their use in the treatment of ischaemic disorders” (PainCeptor Pharma Corporation, priority 1999, dated 2007):

biological target: T1, naturally occurring proton-gated cation channel in a HEK293 cell (Homo sapiens, UniProt P78348); test: Patch clamp of whole cell currents elicited by a drop in extracellular pH in HEK293 cells; assay type: cell-based; details: extracellular pH drop from 7.4 to 6.5, group IC50 below 100 nM, read-out: IC50, inhibition of the proton activated response
T1 construct: a naturally occurring proton-gated cation channel in a HEK293 cell; endogenous in cells; host or cells: HEK293
T1 sequence (P78348 1-528): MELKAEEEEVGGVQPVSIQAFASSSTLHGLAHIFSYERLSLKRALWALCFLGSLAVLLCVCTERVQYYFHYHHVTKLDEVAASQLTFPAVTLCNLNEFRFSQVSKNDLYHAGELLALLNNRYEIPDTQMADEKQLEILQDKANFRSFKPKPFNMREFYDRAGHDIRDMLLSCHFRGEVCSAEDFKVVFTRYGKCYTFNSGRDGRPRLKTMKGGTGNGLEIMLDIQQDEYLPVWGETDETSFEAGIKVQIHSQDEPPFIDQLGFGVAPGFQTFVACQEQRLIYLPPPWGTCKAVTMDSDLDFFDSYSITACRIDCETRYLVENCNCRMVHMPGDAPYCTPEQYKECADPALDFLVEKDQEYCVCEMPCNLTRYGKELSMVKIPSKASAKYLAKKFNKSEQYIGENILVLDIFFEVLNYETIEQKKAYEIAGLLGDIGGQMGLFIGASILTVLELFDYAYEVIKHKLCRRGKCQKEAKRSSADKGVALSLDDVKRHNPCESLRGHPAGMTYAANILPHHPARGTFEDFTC
Experimental: In this example the current flux induced by protons over the membrane of a naturally occurring proton-gated cation channel in a HEK293 cell was determined using patch clamp techniques.
Using this technique, the effects of the compounds for use according to the invention was investigated on whole cell currents elicited by a drop in extracellular pH from 7.4 to 6.5.

Row | Compound | IC50 [µM]
1 | CN1CCc2c(-c3ccc(Cl)cc3)cc3c(c2C1)NC(=O)C3=NO [5-(4-chlorophenyl)-8-methyl-6-7-8-9-tetrahydro-1-H-pyrrolo-[3,2-h]-isoquinoline-2,3-dione-3-oxim] | < 0.1
2 | CN1Cc2c(-c3cccc4ccccc34)cc3c(c2C1)NC(=O)C3=NO [7-methyl-5-(1-naphthyl)-1-6-7-8-tetrahydrobenzo-[2,1-b:3,4-c]-dipyrrole-2,3-dione-3-oxime] | < 0.1
3 | CN1Cc2c(-c3ccccc3)cc3c(c2C1)NC(=O)C3=NO [7-methyl-5-phenyl-1-6-7-8-tetrahydrobenzo-[2,1-b:3,4-c]-dipyrrole-2,3-dione-3-oxime] | < 0.1
4 | CCN1CCc2c(-c3ccccc3)cc3c(c2C1)NC(=O)/C3=N/O [8-ethyl-5-phenyl-6-7-8-9-tetrahydro-1H-pyrrolo-[3,2-h]-isoquinoline-2,3-dione-3-oxim] | < 0.1
5 | CN1CCc2c(-c3ccc(F)cc3)cc3c(c2C1)NC(=O)C3=NO [8-methyl-5-(4-fluorophenyl)-6,7,8,9-tetrahydro-1H-pyrrolo-[3,2-h]-isoquinoline-2,3-dione-3-oxim] | < 0.1
6 | CC(=O)ON=C1C(=O)Nc2c1cc(-c1ccccc1)c1c2CN(C)CC1 [8-methyl-5-phenyl-6,7,8,9-tetrahydro-1H-pyrrolo-[3,2-h]-isoquinoline-2,3-dione-3-acetyloxim] | < 0.1
7 | CN1CCc2c(-c3ccccc3)cc3c(c2C1)NC(=O)C3=NO [8-methyl-5-phenyl-6-7-8-9-tetrahydro-1H-pyrrolo-[3,2-h]-isoquinoline-2,3-dione-3-oxim] | < 0.1

same assay, conditions: extracellular pH drop from 7.4 to 6.5, group IC50 below 1 μM (of from 100 nM to 1 μM), read-out: IC50, inhibition of the proton activated response

Row | Compound | IC50 [µM]
8 | CN1CCc2c(-c3ccc4ccccc4c3)cc3c(c2C1)NC(=O)C3=NO [5-(2-naphthyl)-8-methyl-6-7-8-9-tetrahydro-1-H-pyrrolo-[3.2-h]-isoquinoline-2,3-dione-3-oxim] | < 1
9 | O=C1Nc2c(cc(-c3ccccc3)c3c2CNCC3)C1=NO [5-phenyl-6-7-8-9-tetrahydro-1H-pyrrolo-[3,2-h]-isoquinoline-2,3-dione-3-oxim] | < 1
10 | CCN1Cc2c(-c3ccccc3)cc3c(c2C1)NC(=O)C3=NO [7-ethyl-5-phenyl-1-6-7-8-tetrahydrobenzo-[2,1-b:3,4-c]-dipyrrole-2,3-dione-3-oxime] | < 1
11 | CN1Cc2c(-c3ccccc3)cc3c(c2C1)NC(=O)C3=NO [7-methyl-5-phenyl-1-6-7-8-tetrahydrobenzo-[2,1-b:3,4-c]-dipyrrole-2,3-dione-3-oxime] | < 1
12 | O=C1Nc2c(cc(-c3ccccc3)c3c2CN(Cc2ccccc2)CC3)C1=NO [8-benzyl-5-phenyl-6-7-8-9-tetrahydro-1H-pyrrolo-[3,2-h]-isoquinoline-2,3-dione-3-oxim] | < 1
13 | O=C1Nc2c(cc(-c3ccccc3)c3c2CN(CC2CC2)CC3)C1=NO [8-cyclopropylmethyl-5-phenyl-6,7,8,9-tetrahydro-1H-pyrrolo-[3,2-h]-isoquinoline-2,3-dione-3-oxime] | < 1
14 | CCN1CCc2c(-c3ccccc3)cc3c(c2C1)N(C)C(=O)C3=NO [8-ethyl-5-phenyl-6-7-8-9-tetrahydro-1-methyl-pyrrolo-[3,2-h]-isoquinoline-2,3-dione-3-oxim] | < 1
15 | COc1ccccc1-c1cc2c(c3c1CCN(C)C3)NC(=O)/C2=N\O [8-methyl-5-(2-methoxyphenyl)-6-7-8-9-tetrahydro-1-H-pyrrolo-[3.2-h]-isoquinoline-2,3-dione-3-oxim] | < 1
16 | COc1cccc(-c2cc3c(c4c2CCN(C)C4)NC(=O)/C3=N\O)c1 [8-methyl-5-(3-methoxyphenyl)-6-7-8-9-tetrahydro-1-H-pyrrolo-[3.2-h]-isoquinoline-2,3-dione-3-oxim] | < 1
17 | CN1CCc2c(-c3ccc(S(=O)(=O)N(C)C)cc3)cc3c(c2C1)NC(=O)C3=NO [8-methyl-5-(4-(N,N-dimethylsulfamoyl)-phenyl)-6,7,8,9-tetrahydro-1H-pyrrolo-[3,2-h]-isoquinoline-2,3-dione-3-oxime] | < 1
18 | CN1CCc2c(-c3ccccc3)cc3c(c2C1)NC(=O)C3=NOC(=O)C(C)(C)C [8-methyl-5-phenyl-6-7-8-9-tetrahydro-1-H-pyrrolo-[3.2-h]-isoquinoline-2,3-dione-3-O-2,2-dimethylpropanoyl-oxim] | < 1
19 | CON=C1C(=O)Nc2c1cc(-c1ccccc1)c1c2CN(C)CC1 [8-methyl-5-phenyl-6-7-8-9-tetrahydro-1H-pyrrolo-[3,2-h]-isoquinoline-2,3-dione-3-methyloxim] | < 1

same assay, conditions: extracellular pH drop from 7.4 to 6.5, group IC50 below 10 μM (of from 1 μM to 10 μM), read-out: IC50, inhibition of the proton activated response

Row | Compound | IC50 [µM]
20 | O=C1Nc2c(cc(-c3ccc(Cl)cc3)c3c2CCCC3)C1=NO [5-(4-chlorophenyl)-6-7-8-9-tetrahydro-1-H-pyrrolo-[3.2-h]-naphthalene-2,3-dione-3-oxim] | 1 to 10
21 | O=C1Nc2c(cc(-c3ccccc3)c3c2CCCC3)/C1=N/O [5-phenyl-6-7-8-9-tetrahydro-1-H-pyrrolo-[3.2-h]-naphthalene-2,3-dione-3-oxim] | 1 to 10
22 | C#CCN1CCc2c(-c3ccccc3)cc3c(c2C1)NC(=O)C3=NO [8-(2-propynyl)-5-phenyl-6,7,8,9-tetrahydro-1H-pyrrolo-[3,2-h]-isoquinoline-2,3-dione-3-oxime] | 1 to 10
23 | CCN1CCc2c(-c3ccccc3)cc3c(c2C1)N(C)C(=O)C3=NOC [8-ethyl-5-phenyl-6-7-8-9-tetrahydro-1-methyl-pyrrolo-[3,2-h]-isoquinoline-2,3-dione-3-O-methyloxim] | 1 to 10
24 | COC(=O)CN1CCc2c(-c3ccccc3)cc3c(c2C1)NC(=O)C3=NO [8-methoxycarbonylmethyl-5-phenyl-6,7,8,9-tetrahydro-1H-pyrrolo-[3,2-h]-isoquinoline-2,3-dione-3-oxime] | 1 to 10
25 | COc1ccc(-c2cc3c(c4c2CCN(C)C4)NC(=O)C3=NO)cc1 [8-methyl-5-(4-methoxyphenyl)-6-7-8-9-tetrahydro-1-H-pyrrolo-[3.2-h]-isoquinoline-2,3-dione-3-oxim] | 1 to 10
26 | CN1CCc2c(-c3ccc([N+](=O)[O-])cc3)cc3c(c2C1)NC(=O)/C3=N\O [8-methyl-5-(4-nitrophenyl)-6,7,8,9-tetrahydro-1H-pyrrolo-[3,2-h]-isoquinoline-2,3-dione-3-oxim] | 1 to 10

system: not given; test: not given; details: not given

Row | Compound | melting point
27 | C#CCN1CCc2c(-c3ccccc3)cc3c(c2C1)NC(=O)C3=NO [8-(2-propynyl)-5-phenyl-6,7,8,9-tetrahydro-1H-pyrrolo-[3,2-h]-isoquinoline-2,3-dione-3-oxime] | 170 °C (dec.)
28 | O=C1Nc2c(cc(-c3ccccc3)c3c2CN(Cc2ccccc2)CC3)C1=NO [8-benzyl-5-phenyl-6-7-8-9-tetrahydro-1H-pyrrolo-[3,2-h]-isoquinoline-2,3-dione-3-oxim] | 160 °C (dec.)
29 | O=C1Nc2c(cc(-c3ccccc3)c3c2CN(CC2CC2)CC3)C1=NO [8-cyclopropylmethyl-5-phenyl-6,7,8,9-tetrahydro-1H-pyrrolo-[3,2-h]-isoquinoline-2,3-dione-3-oxime] | 170 °C (dec.)
